Values after ≈ are worked out from the molar mass of the structure shown. Values joined by “and” are separate entries in the source; they are usually repeats but may differ in a detail not shown here. Identical values can stand only once. Like-named read-outs stand apart in the source and are kept apart here.
Legend:
[1] = system: Aspergillus fumigatus (strain n°AF 980003); assay: Antifungal activity on a clinical strain of Aspergillus fumigatus (Alamar Blue microplate test); format: cell-based; settings: for MIC / CMI or CI80 Aspergillus fumigatus (AF980003): strain AF980003; for MIC: read-out: CMI or CI80 Aspergillus fumigatus (AF980003); for activity against Aspergillus fumigatus (in words): summary of Tables 27 to 40
[2] = system: Candida albicans (strain n° CA980001); assay: Antifungal activity on a clinical strain of Candida albicans (MTT colorimetric microplate test); format: cell-based; settings: for MIC / CMI or CI80 Candida albicans (CA980001): strain CA980001; for MIC: read-out: CMI or CI80 Candida albicans (CA980001); for activity of inhibition of Candida albicans (in words): summary of Tables 27 to 40
[3] = system: intracellular amastigote form of Leishmania mexicana; assay: Anti-leishmanian activity on the amastigote form in peritoneal macrophages of BALB/c mice; format: cell-based
[4] = system: promastigote stage of Leishmania mexicana; assay: Antiparasitic activity on the promastigote form of Leishmania (MTT); format: cell-based; settings: for IC50: read-out: CI50 Leishmania mexicana Promastigotes
[5] = system: Candida albicans (CA98001); assay: Antifungal activity in vivo on a model of disseminated candidiasis; set-up: species or system female Swiss mice; settings: mouse, in vivo
[6] = promastigotes, 36 h at 26° C., MTT

Brc1ccc(C(Cn2ccc3ccccc32)n2ccnc2)cc1 (centres unmarked) [Cpsé 84, 1-[2-(4-Bromophenyl)-2-(1H-imidazol-1-yl)ethyl]-1H-indole]
MIC ([1]; Aspergillus fumigatus): > 100 µM
MIC ([2]; Candida albicans, 24 h): > 100 µM
activity against the intracellular amastigote form of Leishmania (in words) [3]: very active
IC50 ([3]; Leishmania mexicana, Peritoneal macrophage, intracellular amastigote form, read-out: CI50 Intracellular amastigotes): 3.1 ± 0.04 µg/mL (≈ 8.46 µM)
activity against Leishmania mexicana (in words) [4]: most active
IC50 ([4]; Leishmania mexicana): 0.16 µg/mL and 370 nM

OC(Cn1cncn1)(Cn1cncn1)c1ccc(F)cc1F [Fluconazole, fluconazole, reference compound]
MIC ([2]; Candida albicans, 24 h at 37° C., MTT): 0.07 µM (≈ 0.0214 µg/mL)
CMI or CI80 Candida albicans (CA980001) ([2]; 24 h at 37° C., MTT): 0.02 µg/mL
survival at D10 [5]: 100%

CCn1c(C)c(C(c2ccc(F)cc2)n2ccnc2)c2ccccc21 (centres unmarked) [compound 43]
CMI or CI80 Aspergillus fumigatus (AF980003) [1]: 53 ± 3 μM and 17 ± 1 μg/mL
CMI or CI80 Candida albicans (CA980001) [2]: 6 ± 1 μM and 2.0 ± 1 μg/mL
activity of inhibition of Candida albicans (in words) [2]: significant activity
CI50 Leishmania mexicana Promastigotes ([4]; promastigotes): 1.88 ± 0.1 µg/mL (≈ 5.64 µM)
IC50 ([4]; promastigotes): 5.9 ± 0.14 µM

CCN1CCc2cccc(C(c3ccc(F)cc3)n3ccnc3)c21 (centres unmarked) [compound 50]
CMI or CI80 Aspergillus fumigatus (AF980003) ([1]; Alamar Blue): 5.4 ± 0.2 μM and 1.7 ± 0.1 μg/ml
activity against Aspergillus fumigatus (in words) [1]: most active
CMI or CI80 Candida albicans (CA980001) ([2]; 24 h at 37° C., MTT): 0.67 ± 0.01 μM and 0.22 ± 0.01 μg/ml
activity of inhibition of Candida albicans (in words) [2]: most active
activity against Leishmania mexicana (in words) [4]: most active
CI50 Leishmania mexicana Promastigotes [4, 6]: 0.24 ± 0.017 µg/mL (≈ 0.747 µM)
IC50 [4, 6]: 0.74 ± 0.017 µM

CCn1ccc2cccc(C(c3ccc(F)cc3)n3ccnc3)c21 (centres unmarked) [compound 57]
CMI or CI80 Aspergillus fumigatus (AF980003) [1]: 20 ± 5 μM and 6 ± 2 μg/mL
activity against Aspergillus fumigatus (in words) [1]: most active
CMI or CI80 Candida albicans (CA980001) [2]: 0.67 ± 0.02 μM and 0.21 ± 0.01 μg/mL
activity of inhibition of Candida albicans (in words) [2]: most active
CI50 Leishmania mexicana Promastigotes ([4]; promastigotes): 0.80 ± 1.3 µg/mL (≈ 2.5 µM)
IC50 ([4]; promastigotes): 2.49 ± 1.3 µM

CCn1ccc2cc(Br)cc(C(c3ccc(F)cc3)n3ccnc3)c21 (centres unmarked) [compound 58]
CMI or CI80 Aspergillus fumigatus (AF980003) [1]: 59 ± 4 μM and 23 ± 2 μg/mL
activity against Aspergillus fumigatus (in words) [1]: strong activity
CMI or CI80 Candida albicans (CA980001) [2]: 0.69 ± 0.01 μM and 0.27 ± 0.01 μg/mL
activity of inhibition of Candida albicans (in words) [2]: most active
CI50 Leishmania mexicana Promastigotes ([4]; promastigotes): 2.4 ± 0.12 µg/mL (≈ 6.03 µM)
IC50 ([4]; promastigotes): 6.2 ± 0.35 µM

Clc1ccc(Cn2cc(CCn3ccnc3)c3ccccc32)cc1 [compound 59]
MIC [1]: >100 µM
MIC [2]: >100 µM
CI50 Leishmania mexicana Promastigotes [4]: 15.6 µg/mL (≈ 46.5 µM)
IC50 [4]: 87 µM

Clc1ccc(Cn2cc(CCCn3ccnc3)c3ccccc32)cc1 [compound 60]
MIC [1]: >100 µM
MIC [2]: >100 µM
CI50 Leishmania mexicana Promastigotes [4]: 26.1 µg/mL (≈ 74.6 µM)
IC50 [4]: 74.7 µM

Reference: patent US20040067998A1, “Antifungal and/or antiparasitic pharmaceutical composition and novel indole derivatives as active principle of such a composition” (priority 2003, published 2004)
